Assay results: patent publication US10844077B2, “Thiazolyl-containing compounds for treating proliferative diseases” (Dana-Farber Cancer Institute, Inc., priority 2014, dated 2020)
“And” between values parts separate entries of the source, which are not always exact repeats. Equal values may be shown once.

Experiments:
Assay in all cases: KINATIV assay
Format in all cases: cell-based
Settings in all cases: 1 μM, 90 minutes, BCWM.1 cells
p38d, p38g = system: p38d, p38g
Outline: (§1)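 Readout is ACTIVX identification and quantitation of kinases captured by an ATP-biotin probe. Lysates from harvested cells were labeled directly with the probe, and each compound was tested in duplicate alongside duplicate or quadruplicate control samples.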

MARK1, MARK2 = system: MARK1, MARK2
Outline: as §1

CaMK2g = CaMK2g (Homo sapiens (Human), UniProt Q13555)
Outline: as §1

IKKe, TBK1 = system: IKKe, TBK1
Outline: as §1

SRPK1, SRPK2 = system: SRPK1, SRPK2
Outline: as §1

CLK3 = CLK3 (Homo sapiens (Human), UniProt P49761)
Outline: as §1

RSK4 domain1 = RSK4 domain1 (Homo sapiens (Human), UniProt Q9UK32)
Chain of RSK4 domain1 (Q9UK32 whole entry, the tested form may be a part): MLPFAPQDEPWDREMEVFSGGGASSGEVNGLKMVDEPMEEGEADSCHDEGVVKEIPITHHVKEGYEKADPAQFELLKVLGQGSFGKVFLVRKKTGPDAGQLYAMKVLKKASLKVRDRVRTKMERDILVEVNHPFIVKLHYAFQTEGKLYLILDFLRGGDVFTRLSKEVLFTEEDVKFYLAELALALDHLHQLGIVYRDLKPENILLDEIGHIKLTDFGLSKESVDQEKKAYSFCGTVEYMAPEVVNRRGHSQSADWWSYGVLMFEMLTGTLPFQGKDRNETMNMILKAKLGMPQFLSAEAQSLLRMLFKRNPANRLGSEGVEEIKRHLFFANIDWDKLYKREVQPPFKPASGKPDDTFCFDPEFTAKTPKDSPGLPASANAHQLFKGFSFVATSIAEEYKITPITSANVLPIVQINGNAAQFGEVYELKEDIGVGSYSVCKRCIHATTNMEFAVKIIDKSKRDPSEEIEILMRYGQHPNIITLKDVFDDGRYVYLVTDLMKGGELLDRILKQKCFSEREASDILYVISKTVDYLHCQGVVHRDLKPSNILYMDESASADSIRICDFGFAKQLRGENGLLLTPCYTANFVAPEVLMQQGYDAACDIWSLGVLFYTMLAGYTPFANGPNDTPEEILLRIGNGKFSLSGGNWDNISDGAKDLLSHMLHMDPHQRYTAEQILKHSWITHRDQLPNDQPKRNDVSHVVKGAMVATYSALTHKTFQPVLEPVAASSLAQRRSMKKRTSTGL
Outline: as §1

NEK9 = NEK9 (Homo sapiens (Human), UniProt Q8TD19)
Chain of NEK9 (Q8TD19 whole entry): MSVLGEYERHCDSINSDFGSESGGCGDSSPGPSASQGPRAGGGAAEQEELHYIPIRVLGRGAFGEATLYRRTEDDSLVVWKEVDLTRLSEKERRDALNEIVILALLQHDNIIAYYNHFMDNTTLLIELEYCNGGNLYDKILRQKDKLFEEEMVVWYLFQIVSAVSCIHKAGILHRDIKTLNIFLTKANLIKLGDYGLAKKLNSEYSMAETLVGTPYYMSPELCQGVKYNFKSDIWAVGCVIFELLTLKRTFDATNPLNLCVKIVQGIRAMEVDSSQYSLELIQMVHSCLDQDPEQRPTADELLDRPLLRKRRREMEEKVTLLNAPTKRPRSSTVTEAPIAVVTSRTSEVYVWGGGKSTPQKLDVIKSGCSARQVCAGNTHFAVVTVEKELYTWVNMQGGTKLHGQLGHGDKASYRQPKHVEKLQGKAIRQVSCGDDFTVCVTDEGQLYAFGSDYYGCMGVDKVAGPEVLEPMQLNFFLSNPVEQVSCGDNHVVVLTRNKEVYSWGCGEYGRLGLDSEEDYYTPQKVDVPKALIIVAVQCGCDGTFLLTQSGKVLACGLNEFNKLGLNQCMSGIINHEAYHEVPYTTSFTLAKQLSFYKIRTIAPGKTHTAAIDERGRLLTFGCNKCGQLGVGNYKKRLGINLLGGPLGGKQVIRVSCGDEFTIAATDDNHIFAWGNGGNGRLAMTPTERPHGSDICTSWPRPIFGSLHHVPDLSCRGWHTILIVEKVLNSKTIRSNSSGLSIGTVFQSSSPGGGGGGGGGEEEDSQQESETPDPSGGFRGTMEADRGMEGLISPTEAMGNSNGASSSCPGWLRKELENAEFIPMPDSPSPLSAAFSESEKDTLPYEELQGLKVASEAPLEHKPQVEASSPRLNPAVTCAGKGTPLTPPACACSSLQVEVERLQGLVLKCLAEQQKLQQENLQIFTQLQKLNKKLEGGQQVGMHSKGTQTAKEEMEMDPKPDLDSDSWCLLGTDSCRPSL
Outline: as §1

TYK2 domain2 = TYK2 domain2 (Homo sapiens (Human), UniProt P29597)
Outline: as §1

PKD1, PKD2 = system: PKD1, PKD2
Outline: as §1

CaMK2d = CaMK2d (Homo sapiens (Human), UniProt Q13557)
Outline: as §1

JNK1, JNK2, JNK3 = system: JNK1, JNK2, JNK3
Outline: as §1

MYO3A, MYO3B = system: MYO3A, MYO3B
Outline: as §1

CASK = CASK (Homo sapiens (Human), UniProt O14936)
Outline: as §1

PKN1 = PKN1 (Homo sapiens (Human), UniProt Q16512)
Outline: as §1

MST4, YSK1 = system: MST4, YSK1
Outline: as §1

RSKL1 = RSKL1 (Homo sapiens (Human), UniProt Q96S38)
Outline: as §1

CaMK4 = CaMK4 (Homo sapiens (Human), UniProt Q16566)
Outline: as §1

PIK3C2B = PIK3C2B (Homo sapiens (Human), UniProt O00750)
Outline: as §1

AMPKa1 = AMPKa1 (Homo sapiens (Human), UniProt Q13131)
Outline: as §1

RSK2 domain2 = RSK2 domain2 (Homo sapiens (Human), UniProt P51812)
Chain of RSK2 domain2 (P51812 whole entry, the tested form may be a part): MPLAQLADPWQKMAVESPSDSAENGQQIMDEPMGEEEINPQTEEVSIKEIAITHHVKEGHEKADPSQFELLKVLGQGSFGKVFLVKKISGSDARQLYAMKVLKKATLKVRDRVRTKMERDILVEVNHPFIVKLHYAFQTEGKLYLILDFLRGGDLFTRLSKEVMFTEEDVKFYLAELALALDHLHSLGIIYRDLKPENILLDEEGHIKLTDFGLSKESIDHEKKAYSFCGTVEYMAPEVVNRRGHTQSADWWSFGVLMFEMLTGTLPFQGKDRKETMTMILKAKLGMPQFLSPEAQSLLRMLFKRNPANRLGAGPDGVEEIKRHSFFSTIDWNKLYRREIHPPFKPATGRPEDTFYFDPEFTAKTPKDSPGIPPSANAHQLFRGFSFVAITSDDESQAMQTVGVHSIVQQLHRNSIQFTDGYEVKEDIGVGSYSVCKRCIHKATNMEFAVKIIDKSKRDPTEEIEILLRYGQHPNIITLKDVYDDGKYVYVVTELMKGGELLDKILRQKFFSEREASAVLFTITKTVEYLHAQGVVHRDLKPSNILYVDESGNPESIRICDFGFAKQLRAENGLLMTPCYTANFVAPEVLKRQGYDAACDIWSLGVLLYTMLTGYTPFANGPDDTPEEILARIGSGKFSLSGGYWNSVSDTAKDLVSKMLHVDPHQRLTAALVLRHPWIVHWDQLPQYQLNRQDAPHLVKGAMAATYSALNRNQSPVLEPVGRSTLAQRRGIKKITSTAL
Outline: as §1

CK1g2 = CK1g2 (Homo sapiens (Human), UniProt P78368)
Outline: as §1

[1] = system: CaMK2a, CaMK2b, CaMK2d, CaMK2g
Outline: as §1

IKKe = IKKe (Homo sapiens (Human), UniProt Q14164)
Outline: as §1

Erk5 = Erk5 (Homo sapiens (Human), UniProt Q13164)
Outline: as §1

PYK2 = PYK2 (Homo sapiens (Human), UniProt Q14289)
Chain of PYK2 (Q14289 whole entry): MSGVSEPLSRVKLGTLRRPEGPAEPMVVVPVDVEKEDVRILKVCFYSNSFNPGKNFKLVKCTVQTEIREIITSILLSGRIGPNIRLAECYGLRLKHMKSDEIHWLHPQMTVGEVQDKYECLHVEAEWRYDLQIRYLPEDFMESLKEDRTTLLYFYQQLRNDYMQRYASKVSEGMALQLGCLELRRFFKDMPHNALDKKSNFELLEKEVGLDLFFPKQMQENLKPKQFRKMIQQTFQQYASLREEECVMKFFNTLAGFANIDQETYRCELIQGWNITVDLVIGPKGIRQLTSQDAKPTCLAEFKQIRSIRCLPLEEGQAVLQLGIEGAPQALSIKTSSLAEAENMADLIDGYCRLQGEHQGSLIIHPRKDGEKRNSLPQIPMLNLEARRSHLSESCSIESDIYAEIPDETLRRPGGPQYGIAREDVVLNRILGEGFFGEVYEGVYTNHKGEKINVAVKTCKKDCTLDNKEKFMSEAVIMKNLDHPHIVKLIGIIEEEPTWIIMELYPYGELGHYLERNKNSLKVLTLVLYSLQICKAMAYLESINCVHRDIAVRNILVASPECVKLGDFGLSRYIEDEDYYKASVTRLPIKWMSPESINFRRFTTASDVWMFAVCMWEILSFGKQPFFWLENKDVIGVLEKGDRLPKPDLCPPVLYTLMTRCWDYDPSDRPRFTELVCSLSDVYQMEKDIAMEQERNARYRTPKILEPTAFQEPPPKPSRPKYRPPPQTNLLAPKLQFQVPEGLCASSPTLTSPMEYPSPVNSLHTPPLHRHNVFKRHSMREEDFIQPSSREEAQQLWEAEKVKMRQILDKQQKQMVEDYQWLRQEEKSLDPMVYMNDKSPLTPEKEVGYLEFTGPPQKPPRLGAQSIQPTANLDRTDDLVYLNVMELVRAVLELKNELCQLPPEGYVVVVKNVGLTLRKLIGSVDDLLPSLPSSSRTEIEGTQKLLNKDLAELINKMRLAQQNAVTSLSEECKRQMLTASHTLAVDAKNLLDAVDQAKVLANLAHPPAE
Outline: as §1

MLKL = MLKL (Homo sapiens (Human), UniProt Q8NB16)
Outline: as §1

NEK7 = NEK7 (Homo sapiens (Human), UniProt Q8TDX7)
Outline: as §1

CaMK1d = CaMK1d (Homo sapiens (Human), UniProt Q8IU85)
Chain of CaMK1d (Q8IU85 whole entry): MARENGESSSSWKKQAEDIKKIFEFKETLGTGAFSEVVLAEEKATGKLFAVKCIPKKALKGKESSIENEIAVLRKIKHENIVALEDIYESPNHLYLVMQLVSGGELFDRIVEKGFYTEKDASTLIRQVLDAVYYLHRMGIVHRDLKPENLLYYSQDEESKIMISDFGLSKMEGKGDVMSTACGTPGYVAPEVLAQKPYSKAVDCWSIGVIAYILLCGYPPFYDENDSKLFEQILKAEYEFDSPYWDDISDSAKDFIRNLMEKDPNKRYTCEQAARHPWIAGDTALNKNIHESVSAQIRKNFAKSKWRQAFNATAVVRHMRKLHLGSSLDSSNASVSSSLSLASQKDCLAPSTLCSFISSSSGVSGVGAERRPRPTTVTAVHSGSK
Outline: as §1

RSK1 domain2 = RSK1 domain2 (Homo sapiens (Human), UniProt Q15418)
Outline: as §1

Wnk1, Wnk2, Wnk3 = system: Wnk1, Wnk2, Wnk3
Outline: as §1

Erk1 = Erk1 (Homo sapiens (Human), UniProt P27361)
Outline: as §1

FES = FES (Homo sapiens (Human), UniProt P07332)
Outline: as §1

ULK1 = ULK1 (Homo sapiens (Human), UniProt O75385)
Outline: as §1

HPK1 = HPK1 (Homo sapiens (Human), UniProt Q92918)
Chain of HPK1 (Q92918 whole entry): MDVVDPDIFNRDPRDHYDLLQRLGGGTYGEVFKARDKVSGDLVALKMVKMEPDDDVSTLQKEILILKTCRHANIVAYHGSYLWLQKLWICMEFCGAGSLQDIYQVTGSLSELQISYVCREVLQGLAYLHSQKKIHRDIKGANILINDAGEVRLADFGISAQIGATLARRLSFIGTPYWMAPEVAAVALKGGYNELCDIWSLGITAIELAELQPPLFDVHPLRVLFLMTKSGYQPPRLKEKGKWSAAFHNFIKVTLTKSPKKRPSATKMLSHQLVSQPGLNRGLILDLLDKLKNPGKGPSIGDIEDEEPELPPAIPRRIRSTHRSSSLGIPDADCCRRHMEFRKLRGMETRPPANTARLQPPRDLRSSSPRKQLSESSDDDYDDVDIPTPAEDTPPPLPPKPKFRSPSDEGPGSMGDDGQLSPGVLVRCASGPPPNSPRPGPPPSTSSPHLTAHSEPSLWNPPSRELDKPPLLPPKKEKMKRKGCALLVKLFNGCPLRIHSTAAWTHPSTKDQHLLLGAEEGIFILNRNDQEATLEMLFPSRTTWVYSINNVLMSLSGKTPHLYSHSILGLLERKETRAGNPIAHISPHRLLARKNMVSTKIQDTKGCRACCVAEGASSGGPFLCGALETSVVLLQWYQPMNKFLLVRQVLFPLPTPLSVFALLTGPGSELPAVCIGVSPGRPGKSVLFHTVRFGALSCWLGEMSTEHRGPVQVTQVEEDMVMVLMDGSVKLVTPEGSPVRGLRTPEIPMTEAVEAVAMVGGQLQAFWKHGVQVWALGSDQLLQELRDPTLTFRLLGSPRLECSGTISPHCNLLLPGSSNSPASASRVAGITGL
Outline: as §1

ATR = ATR (Homo sapiens (Human), UniProt Q13535)
Outline: as §1

CK2a2 = CK2a2 (Homo sapiens (Human), UniProt P19784)
Chain of CK2a2 (P19784 whole entry): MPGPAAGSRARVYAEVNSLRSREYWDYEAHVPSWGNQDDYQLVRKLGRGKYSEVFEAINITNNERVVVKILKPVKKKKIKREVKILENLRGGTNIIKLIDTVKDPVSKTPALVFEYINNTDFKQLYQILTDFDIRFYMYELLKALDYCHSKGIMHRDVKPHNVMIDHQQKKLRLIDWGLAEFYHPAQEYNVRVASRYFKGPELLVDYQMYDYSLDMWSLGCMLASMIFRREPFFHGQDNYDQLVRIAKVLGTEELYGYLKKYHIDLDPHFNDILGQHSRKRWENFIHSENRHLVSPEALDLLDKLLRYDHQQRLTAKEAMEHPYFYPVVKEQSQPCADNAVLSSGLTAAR
Outline: as §1

NEK8 = NEK8 (Homo sapiens (Human), UniProt Q86SG6)
Outline: as §1

LATS2 = LATS2 (Homo sapiens (Human), UniProt Q9NRM7)
Outline: as §1

PHKg2 = PHKg2 (Homo sapiens (Human), UniProt P15735)
Outline: as §1

MAP2K7 = MAP2K7 (Homo sapiens (Human), UniProt O14733)
Outline: as §1

C=CC(=O)N1CCCCC(Nc2nccc(Nc3ncc(C(=O)Nc4c(C)cccc4C)s3)n2)C1 (centres unmarked) [Example I-7]
% change of MS signal compared to control sample (p38d, p38g): 1.7%
% change of MS signal compared to control sample (MARK1, MARK2): 7.9%
% change of MS signal compared to control sample (CaMK2g): −12.8%
% change of MS signal compared to control sample (IKKe, TBK1): −10.7%
% change of MS signal compared to control sample (SRPK1, SRPK2): 17.3%
% change of MS signal compared to control sample (CLK3): −15.7%
% change of MS signal compared to control sample (RSK4 domain1): −13.5%
% change of MS signal compared to control sample (NEK9): 2.5% and 1.1%
% change of MS signal compared to control sample (TYK2 domain2): −46.4%
% change of MS signal compared to control sample (PKD1, PKD2): −8.3%
% change of MS signal compared to control sample (CaMK2d): −22.5%
% change of MS signal compared to control sample (JNK1, JNK2, JNK3): −4.8%
% change of MS signal compared to control sample (MYO3A, MYO3B): 17.2%
% change of MS signal compared to control sample (CASK): 37.7%
% change of MS signal compared to control sample (PKN1): 4.2%
% change of MS signal compared to control sample (MST4, YSK1): 12.7%
% change of MS signal compared to control sample (RSKL1): 29.7%
% change of MS signal compared to control sample (CaMK4): −24.9%
% change of MS signal compared to control sample (PIK3C2B): 39.9%
% change of MS signal compared to control sample (AMPKa1): 2.7%
% change of MS signal compared to control sample (RSK2 domain2): −0.3%
% change of MS signal compared to control sample (CK1g2): −3.7%
% change of MS signal compared to control sample [1]: 7.4%
% change of MS signal compared to control sample (IKKe): 0.4%
% change of MS signal compared to control sample (Erk5): −13.8%
% change of MS signal compared to control sample (PYK2): 16.6% and 28.4%
% change of MS signal compared to control sample (MLKL): −6.3%
% change of MS signal compared to control sample (NEK7): 10.0%
% change of MS signal compared to control sample (CaMK1d): −19.1% and −16.0%
% change of MS signal compared to control sample (RSK1 domain2): 4.9%
% change of MS signal compared to control sample (Wnk1, Wnk2, Wnk3): 10.4%
% change of MS signal compared to control sample (Erk1): −23.1%
% change of MS signal compared to control sample (FES): −20.9%
% change of MS signal compared to control sample (ULK1): 19.3%
% change of MS signal compared to control sample (HPK1): 23.4% and 19.8%
% change of MS signal compared to control sample (ATR): −48.0%
% change of MS signal compared to control sample (CK2a2): −6.4%
% change of MS signal compared to control sample (NEK8): 12.2%
% change of MS signal compared to control sample (LATS2): −6.6%
% change of MS signal compared to control sample (PHKg2): 0.6%
% change of MS signal compared to control sample (MAP2K7): 11.2%
